Converted amounts (≈) assume the structure as drawn. Like-named read-outs stand apart in the source and are kept apart here.
Assays:
C. albicans (ATCC 24433) = experiment: Antifungal microdilution MIC; assay type: cell-based; conditions: Candida albicans, ATCC24433
Method: (§1) The antifungal and antibacterial activities of the synthesized compounds (5a–i) were evaluated in vitro against E. coli (ATCC 25922), S. marcescens (ATCC 8100), K. pneumoniae (ATCC 13883), P. aeruginosa (ATCC 27853), E. faecalis (ATCC 2942), B. subtilis, S. aureus (ATCC 29213), S. epidermidis (ATCC 12228), C. albicans (ATCC 24433), C. krusei (ATCC 6258), and C. parapsilosis (ATCC 22019). The final synthesized compounds were evaluated as antibacterial and antifungal references, in comparison to azithromycin, voriconazole, and fluconazole. Tables 1 and 2 provide a summary of the antimicrobial activity test results and the minimum inhibitory concentrations (MICs) of the compounds (5a–i).
(§2) The antimicrobial activity of the final compounds (5a–i) was screened against eight species of pathogenic bacteria and […] (E. coli (ATCC 25922), S. marcescens (ATCC 8100), K. pneumonia (ATCC 13883), P. aeruginosa (ATCC 27853), E. faecalis (ATCC 2942), B. subtilis (NRRL NRS 744), S. aureus (ATCC 29213), S. epidermidis (ATCC 12228), C. albicans (ATCC 24433), C. glabrata (ATCC 90030), C. krusei (ATCC 6258), and C. parapsilosis (ATCC 22 019)) according to the microdilution standard methods CLSI M07-A9 (2012) and NCCLS M27-A2 (2002), as described in the previous study.[25],[26]

C. krusei (ATCC 6258) = experiment: Antifungal microdilution MIC; assay type: cell-based; conditions: Pichia kudriavzevii, ATCC6258
Method: as §1, §2

[1] = tested on: C. parapsilosis (ATCC 22019); experiment: Antifungal microdilution MIC; assay type: cell-based; conditions: Lodderomyces parapsilosis, ATCC22019
Method: as §1, §2

B. subtilis = experiment: Antibacterial microdilution MIC; assay type: cell-based; conditions: Bacillus subtilis
Method: as §1, §2

E. coli (ATCC 25922) = experiment: Antibacterial microdilution MIC; assay type: cell-based; conditions: Escherichia coli, ATCC25922
Method: as §1, §2

E. faecalis (ATCC 2942) = experiment: Antibacterial microdilution MIC; assay type: cell-based; conditions: Enterococcus faecalis, ATCC2942
Method: as §1, §2

[2] = tested on: K. pneumoniae (ATCC 13883); experiment: Antibacterial microdilution MIC; assay type: cell-based; conditions: Klebsiella pneumoniae, ATCC13883
Method: as §1, §2

[3] = tested on: P. aeruginosa (ATCC 27853); experiment: Antibacterial microdilution MIC; assay type: cell-based; conditions: Pseudomonas aeruginosa, ATCC27853
Method: as §1, §2

S. aureus (ATCC 29213) = experiment: Antibacterial microdilution MIC; assay type: cell-based; conditions: Staphylococcus aureus, ATCC29213
Method: as §1, §2

[4] = tested on: S. epidermidis (ATCC 12228); experiment: Antibacterial microdilution MIC; assay type: cell-based; conditions: Staphylococcus epidermidis, ATCC12228
Method: as §1, §2

[5] = tested on: S. marcescens (ATCC 8100); experiment: Antibacterial microdilution MIC; assay type: cell-based; conditions: Serratia marcescens, ATCC8100
Method: as §1, §2

[6] = tested on: L929 fibroblast cell line; experiment: Cytotoxicity MTT assay on healthy cells; assay type: cell-based; conditions: L929 healthy mouse fibroblast cells
Method: The effect of the compounds between 5a–i on the viability of the L929 cell line was analyzed by MTT assay. The MTT method was performed as previously described.[27]

[7] = C. albicans (ATCC 24433), read-out: MIC
[8] = C. krusei (ATCC 6258), read-out: MIC
[9] = C. parapsilosis (ATCC 22019), read-out: MIC
[10] = F: B. subtilis, Gram-positive, read-out: MIC
[11] = A: E. coli (ATCC 25922), Gram-negative, read-out: MIC
[12] = E: E. faecalis (ATCC 2942), Gram-positive, read-out: MIC
[13] = C: K. pneumoniae (ATCC 13883), Gram-negative, read-out: MIC
[14] = D: P. aeruginosa (ATCC 27853), Gram-negative, read-out: MIC
[15] = G: S. aureus (ATCC 29213), Gram-positive, read-out: MIC
[16] = H: S. epidermidis (ATCC 12228), Gram-positive, read-out: MIC
[17] = B: S. marcescens (ATCC 8100), Gram-negative, read-out: MIC

MIC (C. albicans (ATCC 24433); [7]) [µg/mL] | MIC (C. krusei (ATCC 6258); [8]) [µg/mL] | MIC [1, 9] [µg/mL] | MIC (B. subtilis; [10]) [µg/mL] | MIC (E. coli (ATCC 25922); [11]) [µg/mL] | MIC (E. faecalis (ATCC 2942); [12]) [µg/mL] | MIC [2, 13] [µg/mL] | MIC [3, 14] [µg/mL] | MIC (S. aureus (ATCC 29213); [15]) [µg/mL] | MIC [4, 16] [µg/mL] | MIC [5, 17] [µg/mL] | melting point [°C] | SMILES | IC50 [6] [µM] | further results
7.81 (≈ 24.3 µM) | 31.2 (≈ 97.2 µM) | 15.6 (≈ 48.6 µM) | 125 (≈ 389 µM) | 62.5 (≈ 194 µM) | 3.9 (≈ 12.1 µM) | 62.5 (≈ 194 µM) | 62.5 (≈ 194 µM) | 31.2 (≈ 97.2 µM) | 31.2 (≈ 97.2 µM) | 62.5 (≈ 194 µM) | 321.6 | CCNc1nnc(-c2ccc(-c3nc4ccccc4[nH]3)cc2)s1 [Compound 5b, N-Ethyl-5-(4-(1H-Benzo[d]imidazole-2-Yl)phenyl)-1,3,4-Thiadiazole-2-Amine] | 119 ± 9.64 | 
3.9 (≈ 11.6 µM) | 125 (≈ 373 µM) | 125 (≈ 373 µM) | 125 (≈ 373 µM) | 125 (≈ 373 µM) | 3.9 (≈ 11.6 µM) | 125 (≈ 373 µM) | 125 (≈ 373 µM) | 62.5 (≈ 186 µM) | 3.9 (≈ 11.6 µM) | 125 (≈ 373 µM) | 324.7 | CC(C)Nc1nnc(-c2ccc(-c3nc4ccccc4[nH]3)cc2)s1 [Compound 5f, N-Isopropyl-5-(4-(1H-Benzo[d]imidazole-2-Yl)phenyl)-1,3,4-Thiadiazole-2-Amine] | 175 ± 3.02 | 
7.81 (≈ 23.3 µM) | 125 (≈ 373 µM) | 125 (≈ 373 µM) | 125 (≈ 373 µM) | 125 (≈ 373 µM) | 15.6 (≈ 46.6 µM) | 125 (≈ 373 µM) | 125 (≈ 373 µM) | 31.2 (≈ 93.2 µM) | 31.2 (≈ 93.2 µM) | 250 (≈ 745 µM) | 275.2 | CCCNc1nnc(-c2ccc(-c3nc4ccccc4[nH]3)cc2)s1 [Compound 5g, N-Propyl-5-(4-(1H-Benzo[d]imidazole-2-Yl)phenyl)-1,3,4-Thiadiazole-2-Amine] |  | 
31.2 (≈ 89.4 µM) | 125 (≈ 358 µM) | 125 (≈ 358 µM) | 125 (≈ 358 µM) | 125 (≈ 358 µM) | 15.6 (≈ 44.7 µM) | 62.5 (≈ 179 µM) | 31.2 (≈ 89.4 µM) | 62.5 (≈ 179 µM) | 62.5 (≈ 179 µM) | 62.5 (≈ 179 µM) | 315.6 | CC(C)CNc1nnc(-c2ccc(-c3nc4ccccc4[nH]3)cc2)s1 [Compound 5i, N-Isobutyl-5-(4-(1H-Benzo[d]imidazole-2-Yl)phenyl)-1,3,4-Thiadiazole-2-Amine] |  | 
 |  |  | < 0.97 | < 0.97 | < 0.97 | < 0.97 | < 0.97 | < 0.97 | < 0.97 | < 0.97 |  | CC[C@H]1OC(=O)[C@H](C)[C@@H](O[C@H]2C[C@@](C)(OC)[C@@H](O)[C@H](C)O2)[C@H](C)[C@@H](O[C@@H]2O[C@H](C)C[C@H](N(C)C)[C@H]2O)[C@](C)(O)C[C@@H](C)CN(C)[C@H](C)[C@@H](O)[C@]1(C)O [azithromycin, reference compound] |  | 
3.9 (≈ 11.2 µM) | 3.9 (≈ 11.2 µM) | 3.9 (≈ 11.2 µM) |  |  |  |  |  |  |  |  |  | C[C@@H](c1ncncc1F)[C@](O)(Cn1cncn1)c1ccc(F)cc1F [voriconazole, reference compound] |  | 

More lines, now with the values behind:

SMILES | MIC (C. albicans (ATCC 24433); [7]) [µg/mL] | MIC (C. krusei (ATCC 6258); [8]) [µg/mL] | MIC [1, 9] [µg/mL] | MIC (B. subtilis; [10]) [µg/mL] | MIC (E. coli (ATCC 25922); [11]) [µg/mL] | MIC (E. faecalis (ATCC 2942); [12]) [µg/mL] | MIC [2, 13] [µg/mL] | MIC [3, 14] [µg/mL] | MIC (S. aureus (ATCC 29213); [15]) [µg/mL] | MIC [4, 16] [µg/mL] | MIC [5, 17] [µg/mL] | melting point [°C] | IC50 [6] [µM] | further results
CNc1nnc(-c2ccc(-c3nc4ccccc4[nH]3)cc2)s1 [Compound 5a, N-Methyl-5-(4-(1H-Benzo[d]imidazole-2-Yl)phenyl)-1,3,4-Thiadiazole-2-Amine] | 31.2 (≈ 102 µM) | 125 (≈ 407 µM) | 125 (≈ 407 µM) | 125 (≈ 407 µM) | 250 (≈ 813 µM) | 3.9 (≈ 12.7 µM) | 125 (≈ 407 µM) | 62.5 (≈ 203 µM) | 7.81 (≈ 25.4 µM) | 7.81 (≈ 25.4 µM) | 62.5 (≈ 203 µM) | 325.6 | 152 ± 3.64 | 
ClCCNc1nnc(-c2ccc(-c3nc4ccccc4[nH]3)cc2)s1 [Compound 5c, N-(2-Chloroethyl)-5-(4-(1H-Benzo[d]imidazole-2-Yl)phenyl)-1,3,4-Thiadiazole-2-Amine] |  |  |  |  |  |  |  |  |  |  |  | 191.2 |  | MIC (C. albicans (ATCC 24433)): 31.2 µg/mL (≈ 87.8 µM); MIC (C. krusei (ATCC 6258)): 125 µg/mL (≈ 351 µM); MIC [1]: 125 µg/mL (≈ 351 µM); MIC (B. subtilis): 62.5 µg/mL (≈ 176 µM); MIC (E. coli (ATCC 25922)): 62.5 µg/mL (≈ 176 µM); MIC (E. faecalis (ATCC 2942)): 15.6 µg/mL (≈ 43.9 µM); MIC [2]: 62.5 µg/mL (≈ 176 µM); MIC [3]: 125 µg/mL (≈ 351 µM); MIC (S. aureus (ATCC 29213)): 31.2 µg/mL (≈ 87.8 µM); MIC [4]: 31.2 µg/mL (≈ 87.8 µM); MIC [5]: 62.5 µg/mL (≈ 176 µM)
Clc1ccccc1Nc1nnc(-c2ccc(-c3nc4ccccc4[nH]3)cc2)s1 [Compound 5d, N-(2-Chlorophenyl)-5-(4-(1H-Benzo[d]imidazole-2-Yl)phenyl)-1,3,4-Thiadiazole-2-Amine] | 7.81 (≈ 19.3 µM) | 125 (≈ 309 µM) | 125 (≈ 309 µM) | 125 (≈ 309 µM) | 125 (≈ 309 µM) | 7.81 (≈ 19.3 µM) | 125 (≈ 309 µM) | 125 (≈ 309 µM) | 7.81 (≈ 19.3 µM) | 31.2 (≈ 77.4 µM) | 62.5 (≈ 155 µM) | 294.8 | 197 ± 14.7 | 
c1ccc2[nH]c(-c3ccc(-c4nnc(NC5CCCCC5)s4)cc3)nc2c1 [Compound 5e, N-Cyclohexyl-5-(4-(1H-Benzo[d]imidazole-2-Yl)phenyl)-1,3,4-Thiadiazole-2-Amine] | 7.81 (≈ 20.8 µM) | 125 (≈ 333 µM) | 125 (≈ 333 µM) | 250 (≈ 666 µM) | 125 (≈ 333 µM) | 15.6 (≈ 41.6 µM) | 125 (≈ 333 µM) | 125 (≈ 333 µM) | 125 (≈ 333 µM) | 7.81 (≈ 20.8 µM) | 125 (≈ 333 µM) | 276.5 | 102 ± 12 | 
COc1ccc(Nc2nnc(-c3ccc(-c4nc5ccccc5[nH]4)cc3)s2)cc1 [Compound 5h, N-(4-Methoxyphenyl)-5-(4-(1H-Benzo[d]imidazole-2-Yl)phenyl)-1,3,4-Thiadiazole-2-Amine] | 3.9 (≈ 9.76 µM) | 125 (≈ 313 µM) | 125 (≈ 313 µM) | 125 (≈ 313 µM) | 31.2 (≈ 78.2 µM) | 3.9 (≈ 9.76 µM) | 62.5 (≈ 156 µM) | 31.2 (≈ 78.2 µM) | 31.2 (≈ 78.2 µM) | 31.2 (≈ 78.2 µM) | 62.5 (≈ 156 µM) | 276.7 | 76 ± 9.4 | 
OC(Cn1cncn1)(Cn1cncn1)c1ccc(F)cc1F [fluconazole, reference compound] | 7.81 (≈ 25.5 µM) | 7.81 (≈ 25.5 µM) | 7.81 (≈ 25.5 µM) |  |  |  |  |  |  |  |  |  |  | 
